Measurements taken from patent EP4467141A1, “PYRAZOLO-QUINOLINES AS SELECTIVE INHIBITORS OF GENOTOXIC STRESS-INDUCED IKK/NF- KB PATHWAYS FOR CANCER THERAPY” (Max-Delbrück-Centrum für Molekulare Medizin in der …, priority 2023, dated 2024).

System: p65 nuclear translocation
Assay: HCS screening: etoposide-induced p65 nuclear translocation in U2-OS cells
Assay type: cell-based
Details: Homo sapiens, U2OS, read-out: etoposide-stimulated IC50 of p65 nuclear translocation
Procedure: Fig.1: Identification of inhibitors specific for DNA damage-induced NF-κB activity. (A) Flowchart representing the high-throughput chemical library screening. A screen/counter-screen strategy was used by stimulating NF-κB in U2-OS cells with etoposide (50 µM for 90 min) and hits were counter-screened with TNFα (10 ng/ml for 20 min). Cells were pre-treated with compounds (10 µM) for 1 hour before stimulation, fixed, and percent p65 nuclear translocation measured by fluorescence microscopy. IC50 values were used for final selection. (B) Comparison of mean p65 nuclear translocation following either etoposide or TNFa stimulation after treatment with each counter-screened hit compound. Values were normalized to etoposide or TNFα positive controls. Specific inhibitors (red) of DNA damage-induced NF-κB signaling were defined by setting cut-off criteria (black line). […] (E) Western blot analysis (top) and quantification (bottom) of NF-κB subunit p65 phosphorylation (S536) following 1-hour pre-treatment with DMSO, MW01 (10 µM), or MW05 (10 µM), in unstimulated, after 90 min irradiation (IR, 20 Gy), or after 20 min TNFα (10 ng/mL) conditions in U2- OS cells. […]
To identify inhibitors that selectively prevent DNA damage-induced NF-κB activation, we established a high-throughput screening platform quantifying p65 nuclear translocation, an essential step in NF-κB activation (Hayden and Ghosh, 2008). […]

| SMILES | IC50 [nM] |
| --- | --- |
| COc1ccc2c(c1OC)c(=O)n1c3ccc(O)cc3c3ccnc2c31 [MW01, 5-Hydroxy-10,11-dimethoxy-9H-benzo[c]indolo[3,2,1-ij][1,5]naphthyridin-9-one] | 460 |
| COc1ccc2cc3c(N)nn(C(=O)c4cccc(N(C)C)c4)c3nc2c1 [MW05, (3-Amino-7-methoxypyrazolo[3,4-b]quinolin-1-yl)-[3-(dimethylamino)phenyl]methanone] | 690 |
